From US9857359B2, “Methods for determining drug efficacy using cereblon-associated proteins” (CELGENE CORPORATION, priority 2012, dated 2018) come the findings set out here.

Test [1] concerns Aiolos. The experiment in a line: Aiolos inhibition by cohort in cancer patients, flow cytometry. It counts as in vivo, human. The conditions noted are these: by time and dose. The protocol:
Cancer patients were administered Compound A at doses of 0.5 mg, 1 mg, 1.5 mg, 2 mg, 2.5 mg, 3 or 3.5 mg. Blood samples were drawn immediately prior to dosing and 1.5 hr and 5 hr post single dose of Compound A. Peripheral blood mononuclear cells were FICOLL®-isolated from whole blood samples and viably frozen in DMSO. The cells were washed twice with 2 mL of cold phosphate buffer saline (PBS), then permeabilized by adding 2 mL of cold BD CYTOFIX/CYTOPERM™ buffer and incubated on ice for 15 minutes. The cells were centrifuged then washed twice with BD PERM/WASH™ buffer, then resuspended in 40 μl of BD PERM/WASH™ buffer. Cells were stained with anti-CD3 or anti-CD19 antibody, and 20 μl of anti-Aiolos Ab (Santa Cruz Santa Cruz, rabbit polyclonal IgG, cat#sc-101982 at 1:200 dilution with staining buffer), or 20 μL of appropriate isotype controls to cells. Cells were mixed thoroughly and incubated at room temperature for 30 minutes in the dark, washed once with BD perm/wash buffer, then resuspended in […] of BD PERM/WASH™ buffer, and 20 μL of secondary antibody was added before analysis on a flow cytometer.

The subject of test [2] is Aiolos. Description: Aiolos protein degradation in Jurkat cells. It counts as cell-based. The method, then: Jurkat cells were transfected with wildtype full length Aiolos and different lysine mutated full length Aiolos DNA (Origene, 5 μg DNA/100 μL R buffer/2×10^6 cells/shot) using Neon Transfection System (Invitrogen, Grand Island, N.Y.) with program 1350 voltage+10 width+3 pulse. GFP control DNA (Lonza) was also transfected. Transfected cells were cultured in 24-well plate with 1 mL RPMI+10% FBS at 37° C. for 6 hrs and then treated with DMSO or drug for another 48 hrs, Drug treated cells were collected for measuring Aiolos and Ikaros protein expression by western blot with antibodies against Aiolos (Santa Cruz, Dallas, Tex.) and Ikaros (Millipore, Billerica, Mass.).

Test [3] has as its system Aiolos. Description: Aiolos flow cytometry in B and T cells of healthy volunteers. It counts as in vivo, human. The conditions noted are these: doses greater than 0.3 mg. The method, then:
Healthy volunteers were administered placebo (n=10) or Compound B at doses of 0.03 mg, 0.1 mg, 0.3 mg, 1 mg, or 2 mg (N=6 each). Blood samples were drawn prior to dosing, or 3 hr, 12 hr, and 24 hr after dosing. 1. Blood samples were lysed and fixed immediately by mixing 1 volume of blood with 20 volumes of 1× Lyse/Fix buffer (BD Biosciences, cat#558049) and mixing thoroughly by inverting the tube several times. This sample mix was incubated in a 37° C. water bath for 10 minutes, and the cells were pelleted by centrifugation at 800×g for 5 minutes to remove the supernatant by aspiration. The cells were washed twice with 2 mL of cold phosphate buffer saline (PBS), then permeabilized by adding 2 mL of cold BD Cytofix/cytoperm buffer and incubated on ice for 15 minutes. The cells were centrifuged then washed twice with BD perm/wash buffer, then resuspended in 40 μL of BD perm/wash buffer. Cells were stained with anti-CD3 or anti-CD19 antibody, and 20 μL of anti-Aiolos Ab (Santa Cruz Santa Cruz, rabbit polyclonal IgG, cat#sc-101982 at 1:200 dilution with staining buffer), or 20 μL of appropriate isotype controls to cells. Cells were mixed thoroughly and incubated at room temperature for 30 minutes in the dark, washed once with BD perm/wash buffer, then resuspended in 80 μL of BD perm/wash buffer, and 20 μL of secondary antibody was added before analysis on a flow cytometer.

For test [4], the system named is Aiolos. The experiment in a line: SimpleWestern of normal human CD19+ B cells, Aiolos. The conditions noted are these: various concentrations. It counts as cell-based. The protocol: Human B cells were isolated from 3 donors of whole bloods from the New Jersey Blood Center using B cell isolation kits from StemCell Technologies. IKZF family proteins were quantified using the automated capillary-based SimpleWestern System Sally (ProteinSimple). 100 ng of cell lysate protein or serial dilutions of recombinant proteins were mixed in reducing buffer with fluorescent Molecular Weight (MW) standards. After these samples were heated to 95° C. for 5 min, samples were loaded into each capillary tubes and proteins were separated based on MW sizes through stacking and separation matrices for 40 minutes at 250 Volts. Proteins were then immobilized to capillary walls using optimal photoactivated capture chemistry. Following protein immobilization, capillaries were incubated with a blocking reagent for 23 min and target proteins were probed with a specific primary antibody and horseradish peroxidase-conjugated anti-rabbit secondary antibody (ProteinSimple). A mixture of luminol and peroxide (ProteinSimple) was added, the resulting chemiluminescent signal was captured by a CCD camera, and the signal intensities were quantified and analyzed using Compass Software for Sally (ProteinSimple). The Ikaros family proteins in each sample were then calculated based on standard curve of human recombinant proteins. B-Actin was also used as an internal normalization control.

The test system of another test is DLBCL cell lines. Description: Proliferation of DLBCL cell lines in vitro. It counts as cell-based.
The test system of the next test is human tumor xenograft. Description: Human tumor xenograft model (DLBCL). It counts as in vivo.
The test system of test [5] is Aiolos. Description: Aiolos regulation in cells with low or lost CRBN expression. It counts as cell-based. The conditions noted are these: loss of CRBN protein.
The subject of test [6] is Aiolos. Description: Aiolos western blots in MM cells, T cells and B cells. It counts as cell-based, human. The protocol: U266 cells were obtained from ATCC (American Type Culture Collection, Manassas, Va., USA). DF15 cells were obtained from John Shaughnessy (University of Arkansas, Little Rock, Ark., USA). CD19+ B cells were purchased from HemaCare BioResearch Products (Van Nuys, Calif.). Cells were grown in RPMI-1640 medium (Cellgro, Manassas, Va.) containing 10% (V/V) heat-inactivated fetal bovine serum (Gibco, Grand Island, N.Y., USA) supplemented with 2 mM glutamine. […] Primary T cells were isolated from human leukocytes (Blood Center of New Jersey, East Orange, N.J.) by centrifugation through FICOLL® centrifugation medium following the ROSETETTESEP™ protocol (Stem Cell Technologies, Vancouver, Canada). […] Dexamethasone (Sigma, St. Louis, Mo.), melphalan (Sigma, St. Louis, Mo.) and bortezomib (Selleck Chemicals, Houston, Tex.) treated was for 6 hours. The final DMSO concentration is 0.1%. Cells were pre-treated with 10 μM MG-132 (Calbiochem Biochemicals, Billerica, Mass.) for 30 minutes prior to drug addition. Cells were harvested, washed in PBS and cell lysates separated on SDS-PAGE gels (Bio-Rad, Hercules, Calif.). Membranes were immunoblotted with anti-Aiolos (Santa Cruz Biotechnology, Dallas, Tex.), anti-Ikaros (Millipore, Billerica, Mass.) and anti-Actin (Sigma, St. Louis, Mo.; or LI-COR Biosciences, Lincoln, Nebr.) and secondary antibodies (LI-COR Biosciences, Lincoln, Nebr.). The blots were analyzed on ODESSEY® imager (LI-COR Biosciences, Lincoln, Nebr.).
Cell lysates were separated on a 10% TGX SDS-PAGE gel (Bio-Rad) and blotted for Aiolos (Santa Cruz, sc-10198), Ikaros (Millipore, ABD16) and Actin (Sigma, AC15).

Molecules are shown by their SMILES.

For the compound `Cc1nc2cccc(N)c2c(=O)n1C1CCC(=O)NC1=O` (stereo not drawn) [Compound A, 3-(5-amino-2-methyl-4-oxo-4H-quinazolin-3-yl)-piperidine-2,6-dione], in the test with Aiolos [1], the “Aiolos inhibition in B cells” value is reported as “Aiolos inhibition correlates with Compound A exposure” and the “Aiolos inhibition in T cells” value is listed as “Aiolos inhibition correlates with Compound A exposure”. In the test with Aiolos [2], the “Endogenous and over-expressed Aiolos” value was “degrades both endogenous and over-expressed Aiolos”.
Regarding `O=C1CC[C@H](N2Cc3c(OCc4ccc(CN5CCOCC5)cc4)cccc3C2=O)C(=O)N1` [Compound B, 3-(4-((4-(morpholinomethyl)benzyl)oxy)-1-oxoisoindolin-2-yl)piperidine-2,6-dione], the “Aiolos expression in CD19+ B cells and CD3+ T cells” value in the test with Aiolos [3] is on record as “inhibited Aiolos expression at significant levels”. Further, the Aiolos expression entry with Aiolos [4] was “inhibited the expression of Ikaros and Aiolos”.
On to `Nc1cccc2c1CN(C1CCC(=O)NC1=O)C2=O` (stereo not drawn) [lenalidomide], for which the “Effect on non-ABC-DLBCL cells” value with DLBCL cell lines was “minimal effect on non-ABC-DLBCL cells”. Further, the “Proliferation of ABC-DLBCL cells” value with DLBCL cell lines (in vitro) is reported as “preferentially suppressed proliferation of ABC-DLBCL cells”. Also, in the test on human tumor xenograft, the Tumor growth result is “delayed tumor growth”.
As for `Nc1cccc2c1C(=O)N(C1CCC(=O)NC1=O)C2=O` (stereo not drawn) [pomalidomide, reference compound], the “Down-regulation of Aiolos” value with Aiolos [5] is listed as “loss of CRBN protein prevents down-regulation of Aiolos”. For the same compound, the Aiolos expression entry was “reduced the expression of Aiolos and Ikaros” in the test with Aiolos [6] (10 μM lenalidomide, 1 μM pomalidomide, U266, DF15 MM cells, primary CD3+ T cells, primary CD19+ B cells, cycloheximide treated U266); “significantly inhibited Aiolos and Ikaros expression” in the test on Aiolos [6] (six MM cell lines (OPM-2, RPMI-8226, LP-1, U266, H929 and JJN3), various concentrations). Also, the “Reduction of Aiolos levels compared with other treatment compounds for MM” value in the test with Aiolos [6] (MM cells) is “unique to immunomodulatory compounds provided herein”.
